Measurements as given in patent US20140370520A1, “METHODS AND COMPOUNDS FOR DETECTING CANCER” (University College Cardiff Constultants Limited, priority 2010, published 2014).
“And” between values parts separate entries of the source, which are not always exact repeats. Equal entries are not always repeated.

Legend:
hNQO1 [1] = target: T1, hNQO1 (Homo sapiens, UniProt P15559); experiment: Activity of 4-MU and Lactone with hNQO1; format: biochemical; details: 0.1 mM, NADH 0.5 mM, hNQO1, phosphate buffer pH 7, 37° C. (FIG. 6)
T1 sequence (P15559 whole entry): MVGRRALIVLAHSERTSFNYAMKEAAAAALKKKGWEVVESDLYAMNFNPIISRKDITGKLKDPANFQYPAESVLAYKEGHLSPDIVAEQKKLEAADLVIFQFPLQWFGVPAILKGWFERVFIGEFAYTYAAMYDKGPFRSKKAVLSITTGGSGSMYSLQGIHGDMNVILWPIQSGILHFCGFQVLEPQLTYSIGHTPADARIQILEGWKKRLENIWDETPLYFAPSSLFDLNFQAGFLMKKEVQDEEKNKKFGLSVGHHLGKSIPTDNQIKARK
Protocol: This experiment was performed to ensure the products of activation were not further metabolised by hNQO1. HPLC was carried out on samples containing 4-MU and Lactone (0.1 mM), NADH (0.5 mM) and hNQO1 (0.2 μg) in phosphate buffer (10 mM, pH 7) using a 1-99% acetonitrile gradient and a 2 μl injection volume. Temperature was maintained at 37° C.

hNQO1 [2] = target: T1, hNQO1; experiment: Evaluation of MTL8-252 activity with human NQO1 (HPLC/UPLC, UV and fluorescence detection); format: biochemical
Protocol: Initial HPLC was carried out on samples containing MTL8-252 (0.1 mM), NADH (0.5 mM) and 0.5 μg/ml hNQO1 in phosphate buffer (10 mM, pH 7) using a 1-99% acetonitrile gradient and a 1 μl injection volume. Temperature was maintained at 37° C.
Reduction of the parent compound was rapid as most of it had disappeared by the second injection. […] The rate of reduction in MTL8-252 concentration was calculated at 5.9 μM/min and when the concentration of the enzyme was halved the rate reduced to 1.5 μM/min
By altering the settings of the FL Plus detector (Low PMT voltage, λex 410 nm, λem 550 nm) and calibrating for 4-MU measurements by establishing a calibration graph it can be seen that there was a linear response to 4-MU up to at least 200 μM. The maximum concentration used in incubation experiments is 100 μM, final.
Following calibration of the instrument, a repeat experiment of the activation of MTL8-252 by hNQO1 was carried out resulting in calculated rates of loss of MTL8-252 and formation of 4-MU (see FIG. 4). Rate loss of MTL8-252 was 8.41 uM/min and that corresponding to 4-MU formation determined by fluorescence was 13.51 uM/min.

[3] = Stability of MTL8-252 in NMP and sodium phosphate buffer; format: physicochemical
Protocol: Stability of 0.1M MTL8-252 in NMP was assessed over a 2-hour period at 37° C. The compound appeared stable as evidenced by the fact that the uv absorbance peak area remained substantially unchanged. […] A similar experiment was carried out with DMSO stock diluted in 10 mM sodium phosphate buffer.

[4] = Solubility of MTL8-252 in NMP and DMSO; format: physicochemical
Protocol: NMP Solubility: A solution of the product of Example 3D (MTL8-252) was prepared in NMP and further diluted to 0.1M in NMP. The purity of the compound was assessed via uplc using a 1-99% Acetonitrile gradient. Injection volumes of 0.5 μl, 1 μl, 2 μl, 3 μl and 5 μl were used. Purity was determined to be almost 100% based on uv data at 265 nm. The FL Plus settings were (high PMT voltage, λex 410 nm and λem 550 nm, off peak). Only a single peak with retention time of approx 4.3 min was detected. MTL8-252 was equally very soluble in DMSO.
A similar result was obtained for the diluted DMSO stock. Subsequent experiments utilised 0.1M diluted stock in 10 mM phosphate buffer, pH 7.0 and injected directly onto the uplc column

[5] = target: T2, Human NQO1 expressing cells (HDT7) (Homo sapiens, UniProt P15559); experiment: MTL8-252 incubation with cultured cells, luminescence spectrophotometric determination of 4-MU; format: cell-based
T2 construct: expressed in transfected cells; host or cells: HDT7 (engineered NQO1-producing cell line; F179 is the null control)
T2 sequence (P15559 whole entry): as above
Protocol: (§1) Human NQO1 expressing cells (HDT7) and null expressing cells (F179) were cultured in Eagle's MEM medium enriched with non-essential amino acids and 10% FBS. Cells were harvested in exponential growing phase and suspended in cold PBS @ 5×10^6 cells/ml. 100 ul of cell suspension (5×10^5 cells) were added to 3 ml PBS containing 10 uM MTL8-252 at 37° C. in a fluorimeter cuvette and the rate of increase in fluorescence intensity (attributed to 4-MU release), measured over 3 minutes. Control experiment contained substrate alone in PBS.
(§2) The Luminescence Spectrophotometer settings were as follows: λex=360 nm; λem=452 @ 37° C.

[6] = tested on: null expressing cells (F179); experiment: as above; format: cell-based; details: F179 2.5×10^5 cells/mL, luminescence spectrophotometer
Protocol: as §1, §2

[7] = target: T3, hDT7 NQO1-expressing cell line (Homo sapiens, UniProt P15559); experiment: MTL8-252 incubation with cultured cells, uplc separation followed by FL-Plus detection; format: cell-based
T3 construct: expressed in transfected cells; host or cells: HDT7 (engineered NQO1-producing cell line; F179 is the null control)
T3 sequence (P15559 whole entry): as above
Protocol: (§3) Cells in exponential growth phase were harvested and resuspended in cold PBS at 5×10^6 cells/ml. 100 ul of cell suspension (5×10^5 cells) were added to 1 ml PBS containing 10 uM MTL8-252 at 37° C. and incubated for the following time periods: 0, 5, 30 and 60 min. The reaction was stopped by spinning down cells at 13,000 rpm for 30 seconds and the cell free extract injected (2 ul) directly unto the uplc.

[8] = tested on: null expressing cell line F179; experiment: as above; format: cell-based; details: MTL8-252 10 μM in PBS, 5×10^5 cells/mL
Protocol: as §3

[9] = Control experiment: substrate alone without cells, 4-MU release; format: physicochemical
[10] = Stability of MTL8-252 in PBS and cell culture media with or without FBS; format: physicochemical
Text: Possible source is from FBS added in media.

hNQO2 in PC3 cells = target: T4, hNQO2 in PC3 cells (Homo sapiens, UniProt P16083); experiment: Discrimination between NQO1 and NQO2 activity in PC3 cells with co-substrate EP-0152R; format: cell-based; details: 5×10^5 PC-3 cells, 10 uM MTL8-252, 100 uM EP-0152R, 37° C., 5 min (FIG. 14)
T4 construct: Prostate carcinoma cells (as exemplified by PC3 cells) express both NQO1 and NQO2 activity; endogenous in cells; host or cells: PC3 (PC-3) human prostate cancer cell line
T4 sequence (P16083 1-231): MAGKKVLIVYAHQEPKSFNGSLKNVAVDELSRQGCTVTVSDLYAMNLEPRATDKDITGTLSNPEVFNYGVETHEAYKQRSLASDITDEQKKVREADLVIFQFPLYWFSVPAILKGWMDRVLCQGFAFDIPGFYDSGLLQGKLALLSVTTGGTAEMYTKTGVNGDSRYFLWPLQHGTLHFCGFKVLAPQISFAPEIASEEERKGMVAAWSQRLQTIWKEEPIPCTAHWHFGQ
Protocol: Prostate carcinoma cells (as exemplified by PC3 cells) express both NQO1 and NQO2 activity. However, the latter is only activated by the presence of a co-substrate not naturally present in the cells (EP-0152R, 1-carbamoylmethyl-3-carbamoyl-1,4-dihydronicotinamide).
To 440 ul of PBS containing 5×10^5 PC-3 cells pre-incubated at 37° C. for 5 min was added 10 uM MTL8-252 fluorogenic substrate in DMSO (final, 10 ul) and volume adjusted to 500 ul with PBS. After incubating for a further 5 min the mixture was syringe filtered as above and 2 ul of supernatant analysed by uplc as described earlier. The reaction on the same number of cells was repeated with the inclusion of 100 uM EP-0152R (50 ul) as co-substrate during incubation. The reaction mixture was filtered and analysed as above. […] In the former instance, where NQO1 and NQO2 are expressed, the supplemented assay can be used to provide a stronger assay signal and in the latter instance, where only NQO2 is expressed, the supplemented assay can be used to detect hNQO2 expressing cancers only.

hNQO1 [11] = target: T1, hNQO1; experiment: Evaluation of MTL8-252 activity with human NQO1 (HPLC/UPLC, UV and fluorescence detection); format: biochemical; remark: listed apart in the source
[12] = repeat experiment after calibration (FIG. 4)
[13] = replots of UV data at 210 nm (FIG. 5)

## Cc1c(C)c2c(c(C)c1O)C(C)(C)CC(=O)O2 [Lactone, 6-Hydroxy-4,4,5,7,8-pentamethyl-1-benzopyran-2-one]
hNQO1 [1]
  substrate of / stability in the presence of hNQO1: not substrates of hNQO1
hNQO1 [1]; listed as lactone
  substrate of / stability in the presence of hNQO1: stable in the presence of hNQO1

## Cc1cc(=O)oc2cc(O)ccc12 [Compound 4-MU, 4-methylumbelliferone, reference compound]
hNQO1 [1]
  substrate of / stability in the presence of hNQO1: not substrates of hNQO1
hNQO1 [1]; listed as 4 MU
  substrate of / stability in the presence of hNQO1: stable in the presence of hNQO1

## CC1=C(C)C(=O)C(C(C)(C)CC(=O)Oc2ccc3c(C)cc(=O)oc3c2)=C(C)C1=O [MTL8-252, 4-Methyl-2-oxo-2H-chromen-7-yl-3-methyl-3-(2,4,5-trimethyl-3,6-dioxocyclohexa-1,4-dienyl)butanoate]
hNQO1 [2]; MTL8-252 100 μM, hNQO1 0.2 μg/mL, NADH 500 μM, UPLC
  rate of disappearance of Compound (FIG. 4): 13.51 µM/min
hNQO1 [2]; MTL8-252 alone or with NADH alone (FIG. 3)
  reduction in the area of the peak without enzyme: No significant reduction
hNQO1 [2]; UV at 210 nm, hNQO1 and NADH
  rate of appearance of 4 MU (FIG. 5): 11.5 µM/min
  rate of appearance of the lactone (FIG. 5): 9.84 µM/min
  rate of disappearance of MTL8-252 (FIG. 5): 8.41 µM/min
hNQO1 [2]; detected by fluorescence, MTL8-252 100 μM, hNQO1 0.2 μg/mL, NADH 500 μM
  rate of appearance of 4 MU (FIG. 4): 8.41 µM/min
hNQO1 [2]; initial rates, MTL8-252 0.1 mM, NADH 0.5 mM, hNQO1, pH 7, 37° C.
  Rate of formation of Lactone (n = 2): 9.84 µM/min and 7.61 µM/min
hNQO1 [2]; initial rates, MTL8-252 0.1 mM, NADH 0.5 mM, hNQO1, phosphate buffer 10 mM pH 7, 37° C.
  Rate of decrease in MTL8-252 concentration (n = 4): 5.9 µM/min and 6.21 µM/min and 8.41 µM/min and 9.05 µM/min
hNQO1 [2]; initial rates, UV 210 nm, MTL8-252 0.1 mM, NADH 0.5 mM, hNQO1, pH 7, 37° C.
  Rate of formation of 4-MU @ 210 nm (n = 2): 11.48 µM/min and 6.0 µM/min
hNQO1 [2]; initial rates, fluorescence detection, MTL8-252 0.1 mM, NADH 0.5 mM, hNQO1, pH 7, 37° C.
  Rate of formation of 4-MU by FL (n = 2): 13.51 µM/min and 6.90 µM/min
hNQO1 [2]; [12]
  4-MU formation determined by fluorescence: 13.51 µM/min
  Rate loss of MTL8-252: 8.41 µM/min
hNQO1 [2]; [13]
  initial rate of formation of 4-MU: 11.48 µM/min
  initial rate of formation of lactone: 9.84 µM/min
hNQO1 [2]; with NADH, pH 7, 37° C.
  substrate for hNQO1: excellent substrate for hNQO1
[3]; 0.1M in NMP, 2-hour period at 37° C.
  release of 4-methylumbelliferone (4-MU) in NMP: No detectable release
[3]; 0.1M in NMP, 2-hour period at 37° C., uv absorbance peak area
  Stability in NMP: stable
[3]; DMSO stock diluted in 10 mM sodium phosphate buffer (FIG. 2)
  stability in 10 mM sodium phosphate buffer, time stable: at least 1 hr
[3]; phosphate buffer (10 mM), 37° C., monitored 75 mins (FIG. 2)
  stability in phosphate buffer, time stable: at least 1 hour
[4]
  solubility in DMSO: very soluble
[5]; FIG. 7, luminescence spectrophotometer
  increase in 4-MU formation rate, HDT7 compared with null expressing cells (F179): at least 5 fold
[5]; hDT7 2.5×10^5 cells/mL, luminescence spectrophotometer
  rate of formation of 4 MU in the hDT7 cells (FIG. 7): 0.83 nmol/min
[6]
  rate of formation of 4 MU in the F179 cells (FIG. 7): 0.18 nmol/min
[7]; FIG. 8, uplc FL-Plus
  increase in activity of hNQO1 expressing cells over null expressing cells (initial rate): about 100 fold
[7]; MTL8-252 10 μM in PBS, 5×10^5 cells/mL, FL-Plus λex=360 nm λem=450 nm
  initial rate of release of 4 MU in hDT7 cells (FIG. 8): 6.1 µM/min
[8]
  initial rate of release of 4 MU in F179 cells (FIG. 8): 0.068 µM/min
[9]; MTL8-252 10 μM in PBS alone
  rate of release of 4 MU from the control experiment (FIG. 8): 0.002 µM/min
[9]; compound in urine alone, no cells
  rate of formation of 4 MU in the urine alone (FIG. 7): 0.32 nmol/min
[10]; PBS
  stability in PBS (FIG. 9): very stable
[10]; PBS replaced with cell culture medium, possible source FBS
  stability in cell culture medium (FIG. 9): other components in the media can reduce MTL8-252
[10]; media without FBS
  stability in media without FBS (FIG. 9): very stable
hNQO2 in PC3 cells
  increase in the formation of 4-MU by addition of hNQO2 selective co-substrate: 1.2 fold
hNQO1 [11]; 0.2 μg/ml hNQO1, NADH
  rate of reduction in MTL8-252 concentration: 5.9 µM/min
hNQO1 [11]; concentration of the enzyme halved (0.10 μg/mL hNQO1)
  rate of reduction in MTL8-252 concentration: 1.5 µM/min
